Reference: patent US6465641B1, “One pot synthesis of 5′-hydroxy phosphorylated nucleoside derivatives, and compounds formed thereby” (Parker Hughes Institute, priority 1999, dated 2002)

Experiments:
sperm = settings: read-out: EC50 value in sperm motility assays
HIV = settings: read-out: IC50 value in HIV replication assays

EC50 (sperm): 2.8 µM
IC50 (HIV): 0.005 µM
Substance: 5-bromo-6-methoxy-5,6-dihydro-AZT-5′-(p-bromophenyl methoxyalaninyl phosphate)
